# Data: US20230346827A1 (priority 2020, published 2023)
# Marks after values point to notes of the source that are not given here.
# Assays:
# rats subjected to sTBI = assay: sTBI rats, LMW-DS 15 mg/kg s.c.: HPLC of brain free amino acids (Example 3); format: in vivo, rat
# [1] = tested on: PBMC and HUVEC + LPS (TLR4 ligand); assay: BioMAP LPS system; format: cell-based, human; conditions: annotated relative to vehicle controls
# Description: Cell types and stimuli used in each system are as follows: 3C system [HUVEC + (IL-1β, TNFα and IFNy)], 4H system [HUVEC + (IL-4 and histamine)], LPS system [PBMC and HUVEC + LPS (TLR4 ligand)], SAg system [PBMC and HUVEC + TCR ligands], BT system [CD19+ B cells and PBMC + (α-IgM and TCR ligands)], BF4T system [bronchial epithelial cells and HDFn + (TNFα and IL-4)], BE3C system [bronchial epithelial cells + (IL-1β, TNFα and IFNy)], CASM3C system [coronary artery smooth muscle cells + (IL-1 β, TNFα and IFNy)], HDF3CGF system [HDFn + (IL-1β, TNFα, IFNy, EGF, bFGF and PDGF-BB)], KF3CT system [keratinocytes and HDFn + (IL-1β, TNFα, IFNy and TGFβ)], MyoF system [differentiated lung myofibroblasts + (TNFα and TGFβ)] and Mphg system [HUVEC and M1 macrophages + Zymosan (TLR2 ligand)].
# Systems are derived from either single cell types or co-culture systems. Adherent cell types are cultured in 96 or 384-well plates until confluence, followed by the addition of PBMC (SAg and LPS systems). […] Soluble factors from supernatants are quantified using either HTRF® detection, bead-based multiplex immunoassay or capture ELISA. Overt adverse effects of test agents on cell proliferation and viability (cytotoxicity) are detected by sulforhodamine B (SRB) staining, for adherent cells, and alamarBlue® reduction for cells in suspension. […]
# [2] = Acute phase 1: drug 30 min, sacrifice 2 d post-TBI
# [3] = Acute phase 2: drug 30 min, sacrifice 7 d post-TBI
# [4] = Chronic phase: drug 3 d, sacrifice 7 d post-TBI
substance,measurement,setting,value
sodium salt of dextran sulfate [LMW-DS],ALA,rats subjected to sTBI; [2],0.50±0.12^a µmol/g (w.w.)
same,ARG,rats subjected to sTBI; [2],"0.13±0.02^b,d µmol/g (w.w.)"
same,ASN,rats subjected to sTBI; [2],0.12±0.02^i µmol/g (w.w.)
same,ASP,rats subjected to sTBI; [2],"2.40±0.56^d,i µmol/g (w.w.)"
same,CITR,rats subjected to sTBI; [2],0.018 ± 0.004 µmol/g (w.w.)
same,GABA,rats subjected to sTBI; [2],1.43±0.25^a µmol/g (w.w.)
same,GLN,rats subjected to sTBI; [2],4.78±1.09^a µmol/g (w.w.)
same,GLU,rats subjected to sTBI; [2],9.81±1.66^i µmol/g (w.w.)
same,GLY,rats subjected to sTBI; [2],"0.83±0.25^a,c µmol/g (w.w.)"
same,HIS,rats subjected to sTBI; [2],0.068±0.015^b µmol/g (w.w.)
same,L-Cystat,rats subjected to sTBI; [2],"0.185±0.031^b,c,i µmol/g (w.w.)"
same,MET,rats subjected to sTBI; [2],"0.016±0.005^d,j µmol/g (w.w.)"
same,SAH,rats subjected to sTBI; [2],"0.033±0.008^b,c,j µmol/g (w.w.)"
same,SER,rats subjected to sTBI; [2],0.88±0.25^a µmol/g (w.w.)
same,TAU,rats subjected to sTBI; [2],4.86±00.85^b µmol/g (w.w.)
same,THR,rats subjected to sTBI; [2],0.92±0.29^a µmol/g (w.w.)
same,TYR,rats subjected to sTBI; [2],0.15 ± 0.03 µmol/g (w.w.)
same,VAL,rats subjected to sTBI; [2],0.042 ± 0.011 µmol/g (w.w.)
same,ALA,rats subjected to sTBI; [3],"0.52±0.24^a,e µmol/g (w.w.)"
same,ARG,rats subjected to sTBI; [3],0.16 ± 0.03 µmol/g (w.w.)
same,ASN,rats subjected to sTBI; [3],0.13±0.03^i µmol/g (w.w.)
same,ASP,rats subjected to sTBI; [3],"2.94±0.98^f,j µmol/g (w.w.)"
same,CITR,rats subjected to sTBI; [3],0.018 ± 0.008 µmol/g (w.w.)
same,GABA,rats subjected to sTBI; [3],1.60±0.24^a µmol/g (w.w.)
same,GLN,rats subjected to sTBI; [3],3.66 ± 0.41 µmol/g (w.w.)
same,GLU,rats subjected to sTBI; [3],"9.93±1.56^e,i µmol/g (w.w.)"
same,GLY,rats subjected to sTBI; [3],"0.71±0.16^f,i µmol/g (w.w.)"
same,HIS,rats subjected to sTBI; [3],0.055 ± 0.019 µmol/g (w.w.)
same,L-Cystat,rats subjected to sTBI; [3],"0.173±0.038^b,f,i µmol/g (w.w.)"
same,MET,rats subjected to sTBI; [3],"0.022±0.006^b,e,i µmol/g (w.w.)"
same,SAH,rats subjected to sTBI; [3],"0.026±0.010^f,i µmol/g (w.w.)"
same,SER,rats subjected to sTBI; [3],0.71±0.28^b µmol/g (w.w.)
same,TAU,rats subjected to sTBI; [3],3.80 ± 1.19 µmol/g (w.w.)
same,THR,rats subjected to sTBI; [3],0.66 ± 0.23 µmol/g (w.w.)
same,TYR,rats subjected to sTBI; [3],"0.172±0.046^b,f µmol/g (w.w.)"
same,VAL,rats subjected to sTBI; [3],0.057 ± 0.017 µmol/g (w.w.)
same,ALA,rats subjected to sTBI; [4],"0.57±0.28^a,e µmol/g (w.w.)"
same,ARG,rats subjected to sTBI; [4],0.14 ± 0.02 µmol/g (w.w.)
same,ASN,rats subjected to sTBI; [4],0.18±0.02^a µmol/g (w.w.)
same,ASP,rats subjected to sTBI; [4],"4.46±0.70^a,f µmol/g (w.w.)"
same,CITR,rats subjected to sTBI; [4],0.020 ± 0.006 µmol/g (w.w.)
same,GABA,rats subjected to sTBI; [4],1.85±0.65^a µmol/g (w.w.)
same,GLN,rats subjected to sTBI; [4],3.98 ± 0.34 µmol/g (w.w.)
same,GLU,rats subjected to sTBI; [4],13.58±1.28^a µmol/g (w.w.)
same,GLY,rats subjected to sTBI; [4],"1.05±0.13^a,f µmol/g (w.w.)"
same,HIS,rats subjected to sTBI; [4],0.047 ± 0.021 µmol/g (w.w.)
same,L-Cystat,rats subjected to sTBI; [4],"0.26±0.05^a,f µmol/g (w.w.)"
same,MET,rats subjected to sTBI; [4],0.009±0.004^b µmol/g (w.w.)
same,SAH,rats subjected to sTBI; [4],0.050±0.013^a µmol/g (w.w.)
same,SER,rats subjected to sTBI; [4],"0.93±0.27^a,e µmol/g (w.w.)"
same,TAU,rats subjected to sTBI; [4],4.49±0.43^a µmol/g (w.w.)
same,THR,rats subjected to sTBI; [4],"0.75±0.24^a,e µmol/g (w.w.)"
same,TYR,rats subjected to sTBI; [4],0.21±0.05^f µmol/g (w.w.)
same,VAL,rats subjected to sTBI; [4],0.040±0.016^b µmol/g (w.w.)
same,glutamate excitotoxicity marker,rats subjected to sTBI; LMW-DS injected at 3 days after sTBI,no efficacy
same,increase in glutamate (GLU) induced by sTBI,rats subjected to sTBI; drug administered early post-injury (30 min following sTBI),remarkable inhibition
same,Decreased biomarker activity,[1],sTNFα
same,Increased biomarker activity,[1],IL-8
